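Grown in 96-well plates, cells were treated for 48 hours with each compound at five concentrations. Insufficient inhibition: endpoint recorded as highest concentration tested. Here, GI50 denotes the concentration required for 50% inhibition of growth.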 Calls of active or inactive are those of the source. Rule as the data show it: active = GI50 up to about 1.1 µM and inactive = higher.
Experiments:
Assay in all cases: NCI tumour cell line growth inhibition, 48 h
HCT-116 = system: HCT-116
UO-31 = system: UO-31
RPMI-8226 = system: RPMI-8226
786-0 = system: 786-0
OVCAR-3 = system: OVCAR-3
OVCAR-5 = system: OVCAR-5
BT-549 = system: BT-549
HT-29 = system: HT-29
SK-MEL-28 = system: SK-MEL-28
UACC-257 = system: UACC-257
MOLT-4 = system: MOLT-4
SK-MEL-5 = system: SK-MEL-5
HOP-62 = system: HOP-62
SN12C = system: SN12C
IGROV-1 = system: IGROV-1
MDA-MB-231 = system: MDA-MB-231
SNB-75 = system: SNB-75
NCI-H226 = system: NCI-H226
OVCAR-8 = system: OVCAR-8
NCI-H522 = system: NCI-H522
LOX IMVI = system: LOX IMVI
K562 = system: K562
TK-10 = system: TK-10
Malme-3M = system: Malme-3M
U-251 = system: U-251
SW-620 = system: SW-620
SF-295 = system: SF-295
SK-MEL-2 = system: SK-MEL-2
ACHN = system: ACHN
OVCAR-4 = system: OVCAR-4
NCI/ADR-RES = system: NCI/ADR-RES
UACC-62 = system: UACC-62
KM12 = system: KM12
T47D = system: T47D
PC-3 = system: PC-3
SNB-19 = system: SNB-19
SF-268 = system: SF-268
CAKI-1 = system: CAKI-1
A549 = system: A549
HCT-15 = system: HCT-15
Hs-578T = system: Hs-578T
NCI-H460 = system: NCI-H460
SR = system: SR
CCRF-CEM = system: CCRF-CEM
M14 = system: M14
DU-145 = system: DU-145
RXF 393 = system: RXF 393
MDA-MB-435 = system: MDA-MB-435
NCI-H23 = system: NCI-H23
A498 = system: A498
HOP-92 = system: HOP-92
EKVX = system: EKVX
MDA-N = system: MDA-N
COLO 205 = system: COLO 205
SK-OV-3 = system: SK-OV-3
SF-539 = system: SF-539
HL-60 = system: HL-60
MCF7 = system: MCF7

## C(=N\c1ccc2c(c1)Cc1ccccc1-2)/c1ccccn1
HCT-116
  GI50: 30.5 µM (inactive)
UO-31
  GI50: > 100 µM (inactive)
RPMI-8226
  GI50: > 10 µM (inactive)
786-0
  GI50: 34.8 µM (inactive)
OVCAR-3
  GI50: 61.7 µM (inactive)
OVCAR-5
  GI50: > 100 µM (inactive)
BT-549
  GI50: 81.8 µM (inactive)
HT-29
  GI50: 63.1 µM (inactive)
SK-MEL-28
  GI50: > 100 µM (inactive)
UACC-257
  GI50: 27.1 µM (inactive)
MOLT-4
  GI50: 23 µM (inactive)
SK-MEL-5
  GI50: 61.5 µM (inactive)
HOP-62
  GI50: > 100 µM (inactive)
SN12C
  GI50: 28.4 µM (inactive)
IGROV-1
  GI50: > 100 µM (inactive)
MDA-MB-231
  GI50: 68.2 µM (inactive)
SNB-75
  GI50: 67.6 µM (inactive)
NCI-H226
  GI50: > 100 µM (inactive)
OVCAR-8
  GI50: > 100 µM (inactive)
NCI-H522
  GI50: 26.7 µM (inactive)
LOX IMVI
  GI50: 57.1 µM (inactive)
K562
  GI50: 30.9 µM (inactive)
TK-10
  GI50: 42.7 µM (inactive)
Malme-3M
  GI50: > 100 µM (inactive)
U-251
  GI50: 63.1 µM (inactive)
SW-620
  GI50: 44.6 µM (inactive)
SF-295
  GI50: > 100 µM (inactive)
SK-MEL-2
  GI50: 43.3 µM (inactive)
ACHN
  GI50: > 100 µM (inactive)
OVCAR-4
  GI50: > 100 µM (inactive)
NCI/ADR-RES
  GI50: 91.2 µM (inactive)
UACC-62
  GI50: 89.3 µM (inactive)
KM12
  GI50: 89.3 µM (inactive)
T47D
  GI50: 59.4 µM (inactive)
PC-3
  GI50: 38.7 µM (inactive)
SNB-19
  GI50: > 100 µM (inactive)
SF-268
  GI50: 76.4 µM (inactive)
CAKI-1
  GI50: > 100 µM (inactive)
A549
  GI50: > 100 µM (inactive)
HCT-15
  GI50: 48.3 µM
Hs-578T
  GI50: 92.3 µM (inactive)
NCI-H460
  GI50: 60.3 µM (inactive)
SR
  GI50: 24.9 µM (inactive)
CCRF-CEM
  GI50: 23 µM (inactive)
M14
  GI50: > 100 µM (inactive)
DU-145
  GI50: 88.3 µM (inactive)
RXF 393
  GI50: > 100 µM (inactive)
MDA-MB-435
  GI50: 77.8 µM (inactive)
NCI-H23
  GI50: 74.8 µM (inactive)
A498
  GI50: 44.3 µM (inactive)
HOP-92
  GI50: > 100 µM (inactive)
EKVX
  GI50: 28.8 µM (inactive)
MDA-N
  GI50: 28.9 µM (inactive)

## O=c1c(-c2ccccc2F)coc2cc(F)ccc12
HCT-116
  GI50: > 100 µM (inactive)
UO-31
  GI50: > 100 µM (inactive)
786-0
  GI50: 79.6 µM (inactive)
OVCAR-3
  GI50: > 100 µM (inactive)
OVCAR-5
  GI50: > 100 µM (inactive)
BT-549
  GI50: 99.1 µM (inactive)
HT-29
  GI50: > 100 µM (inactive)
SK-MEL-28
  GI50: > 100 µM (inactive)
UACC-257
  GI50: > 100 µM (inactive)
MOLT-4
  GI50: > 100 µM (inactive)
SK-MEL-5
  GI50: > 100 µM (inactive)
HOP-62
  GI50: > 100 µM (inactive)
SN12C
  GI50: > 100 µM (inactive)
IGROV-1
  GI50: 88.3 µM (inactive)
MDA-MB-231
  GI50: > 100 µM (inactive)
SNB-75
  GI50: 24.2 µM (inactive)
NCI-H226
  GI50: > 100 µM (inactive)
OVCAR-8
  GI50: > 100 µM (inactive)
NCI-H522
  GI50: 37.7 µM (inactive)
LOX IMVI
  GI50: 34.8 µM (inactive)
COLO 205
  GI50: > 100 µM (inactive)
TK-10
  GI50: > 100 µM (inactive)
SK-OV-3
  GI50: > 100 µM (inactive)
U-251
  GI50: 97.7 µM (inactive)
SW-620
  GI50: > 100 µM (inactive)
SF-295
  GI50: > 100 µM (inactive)
SK-MEL-2
  GI50: > 100 µM (inactive)
ACHN
  GI50: > 100 µM (inactive)
OVCAR-4
  GI50: > 100 µM (inactive)
UACC-62
  GI50: > 100 µM (inactive)
KM12
  GI50: > 100 µM (inactive)
SF-539
  GI50: 91.4 µM (inactive)
T47D
  GI50: > 100 µM (inactive)
PC-3
  GI50: > 100 µM (inactive)
SNB-19
  GI50: > 100 µM (inactive)
SF-268
  GI50: > 100 µM (inactive)
CAKI-1
  GI50: > 100 µM (inactive)
A549
  GI50: > 100 µM (inactive)
HCT-15
  GI50: > 100 µM
Hs-578T
  GI50: > 100 µM (inactive)
NCI-H460
  GI50: > 100 µM (inactive)
CCRF-CEM
  GI50: > 100 µM (inactive)
M14
  GI50: > 100 µM (inactive)
DU-145
  GI50: > 100 µM (inactive)
HL-60
  GI50: 70.6 µM (inactive)
RXF 393
  GI50: > 100 µM (inactive)
MDA-MB-435
  GI50: > 100 µM (inactive)
NCI-H23
  GI50: 63.4 µM (inactive)
A498
  GI50: > 100 µM (inactive)
HOP-92
  GI50: > 100 µM (inactive)
EKVX
  GI50: > 100 µM (inactive)
MDA-N
  GI50: > 100 µM (inactive)

## COC(=O)/C1=C/c2c([nH]c3ccccc23)/C(C(=O)OC)=C\c2c1[nH]c1ccccc21 [CAULERPIN]
HCT-116
  GI50: 14.2 µM (inactive)
UO-31
  GI50: 7.6 µM (inactive)
786-0
  GI50: 11.2 µM (inactive)
OVCAR-3
  GI50: 24.8 µM (inactive)
OVCAR-5
  GI50: > 50 µM (inactive)
BT-549
  GI50: 25.6 µM (inactive)
UACC-257
  GI50: > 50 µM (inactive)
SK-MEL-5
  GI50: 28.8 µM (inactive)
HOP-62
  GI50: 10.9 µM (inactive)
SN12C
  GI50: 34.4 µM (inactive)
IGROV-1
  GI50: 7.53 µM (inactive)
MDA-MB-231
  GI50: 13.7 µM (inactive)
NCI-H226
  GI50: > 50 µM (inactive)
OVCAR-8
  GI50: 26.6 µM (inactive)
NCI-H522
  GI50: 6.08 µM (inactive)
LOX IMVI
  GI50: 18.7 µM (inactive)
COLO 205
  GI50: > 50 µM (inactive)
TK-10
  GI50: 32.6 µM (inactive)
MCF7
  GI50: 10.3 µM (inactive)
Malme-3M
  GI50: 12.9 µM (inactive)
SK-OV-3
  GI50: > 50 µM (inactive)
U-251
  GI50: 19.5 µM (inactive)
SW-620
  GI50: 34.4 µM (inactive)
SF-295
  GI50: 40.3 µM (inactive)
SK-MEL-2
  GI50: 14.4 µM (inactive)
ACHN
  GI50: 22.2 µM (inactive)
NCI/ADR-RES
  GI50: > 50 µM (inactive)
UACC-62
  GI50: 19.9 µM (inactive)
KM12
  GI50: 35.2 µM (inactive)
SF-539
  GI50: 33.5 µM (inactive)
T47D
  GI50: 20.2 µM (inactive)
SNB-19
  GI50: 33.7 µM (inactive)
SF-268
  GI50: 19.5 µM (inactive)
CAKI-1
  GI50: 37.9 µM (inactive)
A549
  GI50: 33.3 µM (inactive)
HCT-15
  GI50: 22 µM
Hs-578T
  GI50: 16.8 µM (inactive)
NCI-H460
  GI50: 13.3 µM (inactive)
M14
  GI50: 25.2 µM (inactive)
DU-145
  GI50: 42 µM (inactive)
RXF 393
  GI50: 12.7 µM (inactive)
MDA-MB-435
  GI50: 14.7 µM (inactive)
NCI-H23
  GI50: 38.1 µM (inactive)
A498
  GI50: 39.2 µM (inactive)
EKVX
  GI50: > 50 µM (inactive)
MDA-N
  GI50: 15.5 µM (inactive)

Reference: ChEMBL document CHEMBL1201862, “PubChem BioAssay data set” (2004)
